Test results published in US6770741B1, “Brandykinin antagonist peptides” (Scios Inc., priority 1991, dated 2004).
Where “and” joins values, the source holds several entries; their conditions need not be identical. Equal values may be shown once. Each block holds one compound with its values, some of them ahead of it. Residues, ends and D or L forms follow the SMILES beside them.

Assays:
bradykinin receptor = biological target: T1, bradykinin receptor (Cavia porcellus, UniProt O70526); test: 3H-Bradykinin binding assay, guinea pig terminal ileum homogenate; settings: competition with 3H-bradykinin (~0.3 nM), guinea pig terminal ileum membranes, 90 min ambient temperature
T1 construct: from tissue; host or cells: guinea pig terminal ileum, washed membrane homogenate
T1 sequence (O70526 1-372): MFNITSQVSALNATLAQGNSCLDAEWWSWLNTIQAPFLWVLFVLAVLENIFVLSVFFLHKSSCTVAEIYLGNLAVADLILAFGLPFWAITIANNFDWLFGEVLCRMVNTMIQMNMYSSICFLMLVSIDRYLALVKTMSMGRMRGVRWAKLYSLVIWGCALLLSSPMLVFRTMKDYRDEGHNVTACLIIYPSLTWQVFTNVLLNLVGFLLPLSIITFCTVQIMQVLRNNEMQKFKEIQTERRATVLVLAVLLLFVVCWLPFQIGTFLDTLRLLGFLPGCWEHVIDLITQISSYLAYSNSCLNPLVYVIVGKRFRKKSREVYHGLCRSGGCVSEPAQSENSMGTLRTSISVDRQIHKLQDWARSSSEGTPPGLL
Protocol: Bradykinin Binding Procedure
Binding of ^3H-Bradykinin was preformed using the method of D. C. Manning, R. Vavrek, J. M. Stewart, and S. H. Synder, J. Pharmacol. Exp. Ther., (1986), 237, 504. The tissues used in the binding assay were terminal ileum from male Hartley guinea pigs (150-350 g). After dissection, tissues were placed in 20 vol of ice-cold buffer A (25 mM TES containing 0.2 g/L of 1,10-phenanthroline adjusted to pH 6.8 with ammonium hydroxide) and homogenized using a Ploytron Tissumizer at setting 6 for 15 sec. The homogenate was centrifuged at 50,000 x g for 10 min, the supernatant discarded, and the pellet resuspended in ice-cold buffer A by homogenization with the Polytron. Each tissue was homogenized and centrifuged three times. The final pellet was resuspended in buffer A containing bovine serum albumin (1 g/L) and Bacitracin (0.14 g/L) to a final volume of 170 mL/g of the original tissue weight. The binding assay consisted of 1 mL in 12×75 mm polypropylene tubes: 50 uL ^3H-bradykinin (20,000 dpm, ˜0.3 nM in the final assay volume), […] displacing drug in buffer A, and 750 uL tissue homogenate. Each tray contained tubes, to which no drug was added to measure maximum binding and tubes to which bradykinin (1 uM final concentration) had been added, to measure […]. Specific binding accounted for 96-98% total binding. Tubes were incubated for 90 min at ambient temperature. The assays were terminated by filtration over Whatman GF/B glass fiber filters that had been pretreated for 2 hours with polyethyleneimine (2 g/L) using a Brandel Tissue Harvester, followed by washing with 4×1 mL aliquots of ice-cold 50 mM Tris, pH 7.4. Filters were dissolved in Ready-Safe Fluor (Beckman) for at least 90 min before quantitation by liquid scintillation spectrometry. Kd values were determined using saturation binding and analysis by EBDA (G. A. MacPherson, J. Pharmacol. Methods, (1985), 213), followed by LIGAND (P. J. Munson, D. Rodbard, Anal. Biochem., (1980), 220). Ki values were determined using competitive analysis followed by EBDA and LIGAND. The following test results were obtained.

[1] = biological target: T2, bradykinin receptors on intestinal (ileal longitudinal) smooth muscle (Cavia porcellus, UniProt O70526); test: Bradykinin antagonist activity on guinea pig ileal longitudinal smooth muscle (Schild analysis); assay type: cell-based; settings: antagonism of bradykinin-induced contraction, 5 min antagonist exposure; for Kb: read-out: pA2 (converted)
T2 construct: The longitudinal muscle was separated from the underlying circular muscle; from tissue; host or cells: guinea pig ileal longitudinal smooth muscle strips
T2 sequence (O70526 1-372): T1 sequence (O70526 1-372)
Protocol: Determination of Bradykinin Antagonist Activity
Guinea pig intestine was removed and placed in a Petri dish containing Tyrodes solution and cut into 3-4 cm segments. The longitudinal muscle was separated from the underlying circular muscle using a cotton applicator (Paton and Zar, J. Physiol., (1968), 194:13. Muscle strips were connected to isometric force-displacement transducers (Grass or Gould) coupled to a physiograph and placed in tissue baths containing Tyrode's solution at 37° C. Each preparation was suspended under a resting tension of 2 g.
After equilibration of the tissues, appropriate volumes of bradykinin solutions were cumulatively added to the 10 mL tissue baths to increase the concentration of bradykinin in the bath step-by-step without washing out after each single dose. Higher concentrations were added only after the preceding contraction had reached a steady value. […] Antagonism of bradykinin responses in the presence of antagonist were determined by repeating the cumulative addition procedure for bradykinin after the tissue has been exposed to the antagonist for 5 minutes. Three or four different concentrations of antagonist are studied sequentially in the same preparations. Responses were expressed as a percentage of the maximum contraction elicited by bradykinin in the absence of antagonist. pA2 values were calculated by Schild analysis.

[2] = anesthetized rat, intra-aortic vs intravenous administration; cited from earlier work
[3] = cited from earlier work

Compound: CCCO[C@H]1C[C@H](C(=O)N2Cc3ccccc3C[C@H]2C(=O)N[C@@H](CCCNC(=N)N)C(=O)O)N(C(=O)[C@H](CO)NC(=O)[C@H](Cc2cccs2)NC(=O)CNC(=O)[C@@H]2C[C@@H](O)CN2C(=O)[C@@H]2CCCN2C(=O)[C@H](CCCNC(=N)N)NC(=O)[C@H](N)CCCNC(=N)N)C1 [D-Arg-Arg-Pro-4Hyp-Gly-Thi-Ser-(D-4-Hydroxyproline trans propyl ether)-Tic-Arg]
- Ki (bradykinin receptor): 0.59 nM
- Kb [1]: 24.5 nM

Compound: CO[C@@H]1C[C@H](C(=O)N2Cc3ccccc3C[C@H]2C(=O)N[C@@H](CCCNC(=N)N)C(=O)O)N(C(=O)[C@H](CO)NC(=O)[C@H](Cc2cccs2)NC(=O)CNC(=O)[C@@H]2C[C@@H](O)CN2C(=O)[C@@H]2CCCN2C(=O)[C@H](CCCNC(=N)N)NC(=O)[C@H](N)CCCNC(=N)N)C1 [D-Arg-Arg-Pro-4Hyp-Gly-Thi-Ser-(D-4-hydroxyproline cis methyl ether)-Tic-Arg]
- Ki (bradykinin receptor): 164 ± 20 nM
- Kb [1]: 5750 nM and 6310 nM

Compound: CCCO[C@@H]1C[C@H](C(=O)N2Cc3ccccc3C[C@H]2C(=O)N[C@@H](CCCNC(=N)N)C(=O)O)N(C(=O)[C@H](CO)NC(=O)[C@H](Cc2cccs2)NC(=O)CNC(=O)[C@@H]2C[C@@H](O)CN2C(=O)[C@@H]2CCCN2C(=O)[C@H](CCCNC(=N)N)NC(=O)[C@H](N)CCCNC(=N)N)C1 [D-Arg-Arg-Pro-4Hyp-Gly-Thi-Ser-(D-4-hydroxyproline cis propyl ether)-Tic-Arg]
- Ki (bradykinin receptor): 172 ± 45 nM
- Kb [1]: 8910 nM and 3160 nM

Compound: CO[C@H]1C[C@H](C(=O)N2Cc3ccccc3C[C@H]2C(=O)N[C@@H](CCCNC(=N)N)C(=O)O)N(C(=O)[C@H](CO)NC(=O)[C@H](Cc2cccs2)NC(=O)CNC(=O)[C@@H]2C[C@@H](O)CN2C(=O)[C@@H]2CCCN2C(=O)[C@H](CCCNC(=N)N)NC(=O)[C@H](N)CCCNC(=N)N)C1 [D-Arg-Arg-Pro-4Hyp-Gly-Thi-Ser-(D-4-hydroxyproline trans methyl ether)-Tic-Arg]
- Ki (bradykinin receptor): 1.54 nM
- Kb [1]: 186 nM

Compound: NC(N)=NCCC[C@H](NC(=O)[C@H](Cc1ccccc1)NC(=O)[C@@H]1CCCN1C(=O)[C@H](CO)NC(=O)[C@H](Cc1ccccc1)NC(=O)CNC(=O)[C@@H]1CCCN1C(=O)[C@@H]1CCCN1C(=O)[C@@H](N)CCCN=C(N)N)C(=O)O [bradykinin, Arg Pro Pro Gly Phe Ser Pro Phe Arg] (H-RPPGFSPFR-OH)
- destruction on a single passage through the pulmonary circulation [2]: 98-99%
- half life in the systemic circulation [3]: less than 30 seconds

- pA2 [1]: 5.9
Compound: D-Arg-Arg-Pro-4Hyp-Gly-Phe-Ser-D-Phe-Phe-Arg [reference compound]
